Test results reported in patent publication US12285509B2, “Glyceryl and glycol acid compounds” (MARY KAY INC., priority 2006, dated 2025).

Assay: UV absorption (UV/Vis spectrometer, standard USP 197U testing procedures)
Format: physicochemical
Excerpt: UV absorption of glyceryl/acid or glycol/acid compounds and compositions containing the same can be determined by UV absorption assays that are generally known to those of ordinary skill in the art.

O=C(OCC(O)CO)c1ccccc1O (centres unmarked) [Glyceryl Mono-Salicylate]
Molar Absorptivity (λ max 238 nm) (λ max 238 nm): 12065.7 | Molar Absorptivity (λ max 307 nm) (λ max 307 nm): 6126.4
